According to paper PMC11748363, “Antimicrobial and Antiproliferative Properties of 2‐Phenyl‐N‐(Pyridin‐2‐yl)acetamides” (Chemical Biology & Drug Design, 2025):
pIC50: −log10 of the molar value. In brackets after ≈: the same amount, converted by molar mass. Like-named read-outs stand apart in the source and are kept apart here.

Experiments:
[1] = test system: Escherichia coli CCM 3954, ATCC 25922; assay: Antibacterial microdilution broth MIC, EC; format: cell-based
[2] = test system: Staphylococcus epidermidis CCM 4418, ATCC 12228; assay: Antibacterial microdilution broth MIC, SE; format: cell-based
[3] = test system: Lichtheimia corymbifera CCM 8077; assay: Antifungal microdilution broth MIC, LC
[4] = test system: Staphylococcus aureus subsp. aureus CCM 4750, ATCC 43300 (MRSA); assay: Antibacterial microdilution broth MIC, MRSA; format: cell-based
[5] = test system: Acinetobacter baumannii DSM 30007, ATCC 19606; assay: Antibacterial microdilution broth MIC, ACI; format: cell-based
[6] = test system: Candida albicans CCM 8320, ATCC 24433; assay: Antifungal microdilution broth MIC, CA
[7] = test system: Pseudomonas aeruginosa CCM 3955, ATCC 27853; assay: Antibacterial microdilution broth MIC, PA; format: cell-based
[8] = test system: Klebsiella pneumoniae CCM 4415, ATCC 10031; assay: Antibacterial microdilution broth MIC, KP
[9] = test system: Candida parapsilosis CCM 8260, ATCC 22019; assay: Antifungal microdilution broth MIC, CP; conditions: Lodderomyces parapsilosis
[10] = test system: Candida krusei CCM 8271, ATCC 6258; assay: Antifungal microdilution broth MIC, CK; conditions: Pichia kudriavzevii
[11] = test system: Candida tropicalis CCM 8264, ATCC 750; assay: Antifungal microdilution broth MIC, CT
[12] = test system: Enterococcus faecalis CCM 4224, ATCC 29212; assay: Antibacterial microdilution broth MIC, EF; format: cell-based
[13] = test system: Aspergillus fumigatus ATCC 204305; assay: Antifungal microdilution broth MIC, AF
[14] = test system: Mycolicibacterium aurum DSM 43999; assay: Antimycobacterial microdilution broth MIC (resazurin), M. aurum; format: cell-based; conditions: DSM43999, read-out: MIC M. aurum
[15] = test system: Mycolicibacterium smegmatis DSM 43465; assay: Antimycobacterial microdilution broth MIC (resazurin), M. smegmatis; format: cell-based; conditions: DSM43465, read-out: MIC M. smegmatis
[16] = test system: Trichophyton interdigitale CCM 8377, ATCC 9533; assay: Antifungal microdilution broth MIC, TI; conditions: Trichophyton interdigitale
[17] = test system: Staphylococcus aureus CCM 4223, ATCC 29213; assay: Antibacterial microdilution broth MIC, SA; format: cell-based
HepG2 cell line = assay: Cytotoxicity CellTiter 96, HepG2; format: cell-based, human; conditions: Homo sapiens, HepG2, 24 h, 24 h incubation; ^c compound precipitated in the testing medium; ^d over the limit of tested concentrations
[18] = test system: Mycobacterium tuberculosis H37Ra; assay: Antimycobacterial microdilution broth MIC (resazurin), Mtb H37Ra; format: cell-based; conditions: Mycobacterium tuberculosis, H37RA, read-out: MIC Mtb H37Ra
[19] = test system: Aspergillus flavus CCM 8363; assay: Antifungal microdilution broth MIC, AFla
[20] = CCM8077, 24 h, read-out: MIC LC 24h
[21] = CCM8077, 48 h, read-out: MIC LC 48h
[22] = Staphylococcus aureus, 24 h; read-out: MIC MRSA 24h
[23] = Staphylococcus aureus, 48 h; read-out: MIC MRSA 48h
[24] = ATCC204305, 24 h, read-out: MIC AF 24h
[25] = ATCC204305, 48 h, read-out: MIC AF 48h
[26] = Staphylococcus aureus, 24 h; read-out: MIC SA 24h
[27] = Staphylococcus aureus, 48 h; read-out: MIC SA 48h
[28] = CCM8363, 24 h, read-out: MIC AFla 24h
[29] = CCM8363, 48 h, read-out: MIC AFla 48h

With `COc1ccccc1CC(=O)Nc1ccc(Cl)cn1` [Compound 5] the MIC ([1]; 24 h, read-out: MIC EC 24h) was > 500 µM, the MIC ([1]; 48 h, read-out: MIC EC 48h) was > 500 µM and the MIC ([2]; 24 h, read-out: MIC SE 24h) was > 500 µM. The MIC ([2]; 48 h, read-out: MIC SE 48h) was > 500 µM, the MIC [3, 20] was > 500 µM and the MIC [3, 21] was > 500 µM. The MIC [4, 22] was > 500 µM, the MIC [4, 23] was > 500 µM and the MIC ([5]; 24 h, read-out: MIC ACI 24h) was > 500 µM. The MIC ([5]; 48 h, read-out: MIC ACI 48h) was > 500 µM, the MIC ([6]; 24 h, read-out: MIC CA 24h) was > 500 µM and the MIC ([6]; 48 h, read-out: MIC CA 48h) was > 500 µM. The MIC ([7]; 24 h, read-out: MIC PA 24h) was > 500 µM, the MIC ([7]; 48 h, read-out: MIC PA 48h) was > 500 µM and the “MIC KP 24h” value [8] was > 500 µM. For the same molecule, the “MIC KP 48h” value [8] was > 500 µM, the MIC ([9]; 24 h, read-out: MIC CP 24h) was > 500 µM and the MIC ([9]; 48 h, read-out: MIC CP 48h) was > 500 µM. For the same molecule, the MIC ([10]; 24 h, read-out: MIC CK 24h) was > 500 µM, the MIC ([10]; 48 h, read-out: MIC CK 48h) was > 500 µM and the MIC ([11]; 24 h, read-out: MIC CT 24h) was > 500 µM. The MIC ([11]; 48 h, read-out: MIC CT 48h) was > 500 µM, the MIC ([12]; 24 h, read-out: MIC EF 24h) was > 500 µM and the MIC ([12]; 48 h, read-out: MIC EF 48h) was > 500 µM. The MIC [13, 24] was > 500 µM, the MIC [13, 25] was > 500 µM and the MIC [14] was > 500 µg/mL. The MIC [15] was > 500 µg/mL, the MIC ([16]; 72 h, read-out: MIC TI 72h) was 500 µM (≈ 138 µg/mL) and the MIC ([16]; 120 h, read-out: MIC TI 120h) was 500 µM (≈ 138 µg/mL). The MIC [17, 26] was > 500 µM, the MIC [17, 27] was > 500 µM and the pIC50 (HepG2 cell line) was < 3.60. For the same molecule, the MIC ([18]; Calculated from MIC (μg/mL)) was > 1800 µM, the MIC [18] was > 500 µg/mL and the MIC [19, 28] was > 500 µM. The MIC [19, 29] was > 500 µM.
With `COc1ccccc1CC(=O)Nc1cccc(Cl)n1` [Compound 6] the MIC ([1]; 24 h, read-out: MIC EC 24h) was > 500 µM, the MIC ([1]; 48 h, read-out: MIC EC 48h) was > 500 µM and the MIC ([2]; 24 h, read-out: MIC SE 24h) was > 500 µM. The MIC ([2]; 48 h, read-out: MIC SE 48h) was > 500 µM, the MIC [3, 20] was > 500 µM and the MIC [3, 21] was > 500 µM. The MIC [4, 22] was > 500 µM, the MIC [4, 23] was > 500 µM and the MIC ([5]; 24 h, read-out: MIC ACI 24h) was > 500 µM. For the same molecule, the MIC ([5]; 48 h, read-out: MIC ACI 48h) was > 500 µM, the MIC ([6]; 24 h, read-out: MIC CA 24h) was > 500 µM and the MIC ([6]; 48 h, read-out: MIC CA 48h) was > 500 µM. The MIC ([7]; 24 h, read-out: MIC PA 24h) was > 500 µM, the MIC ([7]; 48 h, read-out: MIC PA 48h) was > 500 µM and the “MIC KP 24h” value [8] was > 500 µM. The “MIC KP 48h” value [8] was > 500 µM, the MIC ([9]; 24 h, read-out: MIC CP 24h) was > 500 µM and the MIC ([9]; 48 h, read-out: MIC CP 48h) was > 500 µM. The MIC ([10]; 24 h, read-out: MIC CK 24h) was > 500 µM, the MIC ([10]; 48 h, read-out: MIC CK 48h) was > 500 µM and the MIC ([11]; 24 h, read-out: MIC CT 24h) was > 500 µM. The MIC ([11]; 48 h, read-out: MIC CT 48h) was > 500 µM, the MIC ([12]; 24 h, read-out: MIC EF 24h) was > 500 µM and the MIC ([12]; 48 h, read-out: MIC EF 48h) was > 500 µM. The MIC [13, 24] was > 500 µM, the MIC [13, 25] was > 500 µM and the MIC [14] was > 500 µg/mL. For the same molecule, the MIC [15] was > 500 µg/mL, the MIC ([16]; 72 h, read-out: MIC TI 72h) was > 500 µM and the MIC ([16]; 120 h, read-out: MIC TI 120h) was > 500 µM. The MIC [17, 26] was > 500 µM, the MIC [17, 27] was > 500 µM and the pIC50 (HepG2 cell line) was < 3.30. The MIC ([18]; Calculated from MIC (μg/mL)) was > 1800 µM, the MIC [18] was > 500 µg/mL and the MIC [19, 28] was > 500 µM. The MIC [19, 29] was > 500 µM.
In the case of `COc1cccc(CC(=O)Nc2ccccn2)c1` [Compound 7, 2-(3-methoxyphenyl)-N-(pyridin-2-yl)acetamide], the MIC ([1]; 24 h, read-out: MIC EC 24h) was > 125 µM, the MIC ([1]; 48 h, read-out: MIC EC 48h) was > 125 µM and the MIC ([2]; 24 h, read-out: MIC SE 24h) was > 125 µM. For the same molecule, the MIC ([2]; 48 h, read-out: MIC SE 48h) was > 125 µM, the MIC [3, 20] was > 125 µM and the MIC [3, 21] was > 125 µM. The MIC ([4]; Staphylococcus aureus, 24 h, read-out: MIC MRSA 24h) was > 125 µM, the MIC ([4]; Staphylococcus aureus, 48 h, read-out: MIC MRSA 48h) was > 125 µM and the MIC ([5]; 24 h, read-out: MIC ACI 24h) was > 125 µM. For the same molecule, the MIC ([5]; 48 h, read-out: MIC ACI 48h) was > 125 µM, the MIC ([6]; 24 h, read-out: MIC CA 24h) was > 125 µM and the MIC ([6]; 48 h, read-out: MIC CA 48h) was > 125 µM. For the same molecule, the MIC ([7]; 24 h, read-out: MIC PA 24h) was > 125 µM, the MIC ([7]; 48 h, read-out: MIC PA 48h) was > 125 µM and the “MIC KP 24h” value [8] was > 125 µM. The “MIC KP 48h” value [8] was > 125 µM, the MIC ([9]; 24 h, read-out: MIC CP 24h) was > 125 µM and the MIC ([9]; 48 h, read-out: MIC CP 48h) was > 125 µM. For the same molecule, the MIC ([10]; 24 h, read-out: MIC CK 24h) was > 125 µM, the MIC ([10]; 48 h, read-out: MIC CK 48h) was > 125 µM and the MIC ([11]; 24 h, read-out: MIC CT 24h) was > 125 µM. The MIC ([11]; 48 h, read-out: MIC CT 48h) was > 125 µM, the MIC ([12]; 24 h, read-out: MIC EF 24h) was > 125 µM and the MIC ([12]; 48 h, read-out: MIC EF 48h) was > 125 µM. The MIC [13, 24] was > 125 µM, the MIC [13, 25] was > 125 µM and the MIC [14] was 250 µg/mL (≈ 1030 µM). The MIC [15] was 250 µg/mL (≈ 1030 µM), the MIC ([16]; 72 h, read-out: MIC TI 72h) was > 125 µM and the MIC ([16]; 120 h, read-out: MIC TI 120h) was > 125 µM. The MIC ([17]; Staphylococcus aureus, 24 h, read-out: MIC SA 24h) was 125 µM (≈ 30.3 µg/mL), the MIC ([17]; Staphylococcus aureus, 48 h, read-out: MIC SA 48h) was 125 µM (≈ 30.3 µg/mL) and the pIC50 (HepG2 cell line) was < 3.30. For the same molecule, the MIC ([18]; Calculated from MIC (μg/mL)) was 516 µM, the MIC [18] was 125 µg/mL and the MIC [19, 28] was > 125 µM. The MIC [19, 29] was > 125 µM.
